Like-named read-outs stand apart in the source and are kept apart here. Values belong to the compound of their own block, whether it stands above or below them.
What was measured:
[1] = tested on: A375; test: Proliferation, CellTiter-Glo 72 h, A375; format: cell-based; conditions: Homo sapiens, A-375, A375, Melanoma, BRAF V600E, RAS WT
Source text: (§1) Note that activity is especially strong on cell lines that harbor at least one mutation in BRAF or RAS.

[2] = tested on: WM2664; test: Proliferation, CellTiter-Glo 72 h, WM2664; format: cell-based; conditions: Homo sapiens, WM 266-4, WM2664, Melanoma, BRAF V600D, RAS WT
Source text: as §1

[3] = tested on: IPC298; test: Proliferation, CellTiter-Glo 72 h, IPC298; format: cell-based; conditions: Homo sapiens, IPC-298, IPC298, Melanoma, BRAF WT, NRAS Q61L
Source text: as §1

[4] = tested on: HeyA8; test: Proliferation, CellTiter-Glo 72 h, HeyA8; format: cell-based; conditions: Homo sapiens, HEY A8, HeyA8, Ovarian, BRAF G464E, KRAS G12D
Source text: as §1

[5] = tested on: HCT116; test: Proliferation, CellTiter-Glo 72 h, HCT116; format: cell-based; conditions: Homo sapiens, HCT-116, HCT116, Colorectal, BRAF WT, KRAS G13D
Source text: as §1

[6] = tested on: Calu-6; test: Proliferation, CellTiter-Glo 72 h, Calu-6; format: cell-based; conditions: Homo sapiens, Calu-6, NSCLC, BRAF WT, KRAS Q61K
Source text: as §1

[7] = tested on: HuP-T4; test: Proliferation, CellTiter-Glo 72 h, HuP-T4; format: cell-based; conditions: Homo sapiens, HuP-T4, Pancreas, BRAF WT, KRAS G12V
Source text: as §1

[8] = tested on: PSN1; test: Proliferation, CellTiter-Glo 72 h, PSN1; format: cell-based; conditions: Homo sapiens, PSN1, Pancreas, BRAF WT, KRAS G12R
Source text: as §1

[9] = tested on: TCC-PAN2; test: Proliferation, CellTiter-Glo 72 h, TCC-PAN2; format: cell-based; conditions: Homo sapiens, TCC-PAN2, Pancreas, BRAF WT, KRAS G12R
Source text: as §1

[10] = tested on: NCI-H2073; test: Proliferation, CellTiter-Glo 72 h, NCI-H2073; format: cell-based; conditions: Homo sapiens, NCI-H2073, NSCLC, BRAF WT, RAS WT
Source text: as §1

[11] = tested on: HCC827; test: Proliferation, CellTiter-Glo 72 h, HCC827; format: cell-based; conditions: Homo sapiens, HCC827, NSCLC, BRAF WT, RAS WT
Source text: as §1

[12] = tested on: PC3; test: Proliferation, CellTiter-Glo 72 h, PC3; format: cell-based; conditions: Homo sapiens, PC-3, PC3, Prostate, BRAF WT, RAS WT
Source text: as §1

[13] = tested on: A375; test: Anti-proliferative effect in mechanistic A375 models, parental A375; format: cell-based; conditions: Homo sapiens, A-375, 72 hours, CellTiter-Glo
Procedure: (§2) To investigate the activity of Compound A in BRAF V600 mutant melanoma cells refractory to BRAF and/or MEK inhibitors, the anti-proliferative activity of Compound A in the mechanistic models derived from the BRAF V600 melanoma cell line A375 expressing mutations of MEK1/2, NRAS, or a splice variant of BRAF was evaluated.

[14] = tested on: A375/BRAFp61-V600E; test: Anti-proliferative effect in mechanistic A375 models, A375/BRAFp61-V600E; format: cell-based; conditions: Homo sapiens, A-375, doxycycline-induced, 72 hours
Procedure: as §2

[15] = tested on: A375/MEK1 Q56P; test: Anti-proliferative effect in mechanistic A375 models, A375/MEK1 Q56P; format: cell-based; conditions: Homo sapiens, A-375, doxycycline-induced, 72 hours
Procedure: as §2

[16] = tested on: A375/MEK1 C121S; test: Anti-proliferative effect in mechanistic A375 models, A375/MEK1 C121S; format: cell-based; conditions: Homo sapiens, A-375, doxycycline-induced, 72 hours
Procedure: as §2

[17] = tested on: A375/MEK1 E203K; test: Anti-proliferative effect in mechanistic A375 models, A375/MEK1 E203K; format: cell-based; conditions: Homo sapiens, A-375, doxycycline-induced, 72 hours
Procedure: as §2

[18] = tested on: A375/MEK2 Q60P; test: Anti-proliferative effect in mechanistic A375 models, A375/MEK2 Q60P; format: cell-based; conditions: Homo sapiens, A-375, doxycycline-induced, 72 hours
Procedure: as §2

[19] = tested on: A375/NRAS Q61K; test: Anti-proliferative effect in mechanistic A375 models, A375/NRAS Q61K; format: cell-based; conditions: Homo sapiens, A-375, doxycycline-induced, 72 hours
Procedure: as §2

[20] = tested on: A375 derivatives expressing mutations of MEK1/2, NRAS, or a splice variant of BRAF; test: IC50 shift of resistant A375 models versus parental A375; format: cell-based, human
Procedure: as §2

[21] = Clinical PK of Compound A tablets, once daily, fasted subjects; format: in vivo, human; conditions: plasma; for AUC: day 1 of dosing, read-out: Mean plasma exposure over the dose interval of 24 hours (AUCtau); for Cmax: oral tablets, fasted subjects, read-out: Maximum plasma concentration (Cmax)
Procedure: Compound A was formulated with hydroxypropylmethylcellulose/Hypromellose, colloidal silicon dioxide, microcrystalline cellulose, polyvinylpyrrolidone/Povidone and magnesium stearate, and formed into tablets containing about 50 mg of Compound A. A number of tablets sufficient to provide a desired dosage were administered once daily to fasted subjects. Subjects were treated at doses of 100 mg once per day, or 200 mg once per day. Serial blood samples for PK assessments were collected up to 48 hours after the first dose of Compound A (Cycle 1 Day 1), and up to 24 hours after multiple doses (Cycle 1 Day 15). […] Mean plasma exposure over the dose interval of 24 hours (AUCtau) on day 1 of dosing was 5679 hr·ng/ml and 10019 hr·ng/ml after the 100 mg and 200 mg doses of Compound A, respectively. […] As this study is on-going, all data presented are considered preliminary.

[22] = tested on: Calu-6 (KRAS Q61K), HCT116 (KRAS G13D); test: Cell-based proliferation, Calu-6 and HCT116; conditions: Homo sapiens
[23] = tested on: Calu-6 (KRAS Q61K) xenograft; test: Calu-6 xenograft in nude mice; format: in vivo
Procedure: (§3) Female nude tumor bearing Calu6 mice, n=6 per group were randomized into treatment groups on day 17 following tumor implantation, when the average tumor volume was 180 mm3. Treatments with compound A were initiated on Day 17 and continued for 16 days. Dosing volume was 10 mL/kg. Tumor volumes were collected at the time of randomization and twice weekly thereafter for the study duration.
(§4) Regressions were also achieved in a second human NSCLC model, NCI-H358, at the 200 mg/kg QD dose in mice and in the human ovarian Hey-A8 xenograft at doses as low as 30 mg/kg QD in mice.

[24] = tested on: Calu-6 (KRAS Q61K) xenograft; test: Calu-6 xenograft in nude rats; format: in vivo
[25] = tested on: NCI-H358 (KRAS G12C) xenograft; test: NCI-H358 xenograft in mice; format: in vivo; conditions: 200 mg/kg QD
Procedure: (§5) SCID beige female tumor-bearing NCI-H358 mice, n=8 per group, were randomized into 3 groups 14 days post tumor cell inoculation with an average tumor volume range of 259.44-262.47 mm^3.
as §4

[26] = tested on: human ovarian Hey-A8 xenograft; test: Hey-A8 ovarian xenograft in mice; format: in vivo; conditions: doses as low as 30 mg/kg QD
Procedure: as §4

[27] = tested on: KRASmt NSCLC models; test: Human KRAS-mutant xenograft models, overall statements; format: in vivo
Procedure: as §5, §3
Nude female mice tumor bearing NCI-H358, n=8 per group, were randomized into 2 groups with an average tumor volume range of 275.74 mm3.

[28] = tested on: Calu-6 human NSCLC xenograft; test: Calu-6 NSCLC subcutaneous xenograft, single agents and combination; format: in vivo; conditions: for durability of tumor response: under treatment, 42 days post dosing
Procedure: Calu-6 NSCLC tumors were established in athymic female mice by subcutaneous injection of 10 million cells in 50% Matrigel™ into the flank of each mouse. […] A-B) Tumor volumes of treatment groups vs. days post randomization. C) Mean percent change in body weight from initial.
Combined treatment with Compound A and Compound B led to increased depth and durability of tumor response compared to either single agent in the human NSCLC xenograft Calu-6. […] Combining Compound A dosed at 30 mg/kg qd with Compound B dosed at either 50 mg/kg qd or 75 mg/kg q2d achieved 66% and 51% regressions, respectively, 17 days post dosing. In addition to the increased depth of response, the combination of Compound A and Compound B also led to an increased durability of response.

[29] = Predicted human PK
[30] = tested on: DUSP6 (dual specificity phosphatase 6); test: DUSP6 pharmacodynamic biomarker in vivo; conditions: subject receiving a dosage associated with efficacious plasma levels
Source text: In addition, an efficacious dosage can be determined by monitoring biomarkers indicative of MAP kinase pathway inhibition.

[31] = tested on: non-small cell lung cancer (NSCLC); test: Phase I dose finding study, tumor response (RECIST); format: in vivo, human; conditions: one NSCLC subject, 1200 mg QD, preliminary
Procedure: The recommended starting dose and regimen of Compound A single agent in this study is 100 mg QD orally based on the preclinical safety, tolerability data, PK/PD data obtained in preclinical studies, as well as exploratory human efficacious dose range projection. […] For maximum flexibility of dosing, Compound A may be prepared as 50 mg and/or 100 mg tablets for oral administration. A proposed formulation for clinical use of Compound A includes Compound A combined with one or more excipients selected from hydroxypropylmethylcellulose (Hypromellose), colloidal silicon dioxide, microcrystalline cellulose, polyvinylpyrrolidone (Povidone), and magnesium stearate, and can be prepared in the form of tablets for oral administration, suitably containing 50 mg or 100 mg of Compound A. This was further confirmed by preliminary results obtained from the clinical trial.

[32] = tested on: Calu6 (KRAS^Q61K); test: 3 day proliferation assay, Calu6; format: cell-based; conditions: Homo sapiens, Calu-6, 72 h, read-out: IC50 cell growth
[33] = tested on: HeyA8 (KRAS^G12D); test: 3 day proliferation assay, HeyA8; format: cell-based; conditions: Homo sapiens, HEY A8, 72 h, read-out: IC50 cell growth
[34] = tested on: AsPC-1 (KRAS^G12D); test: 3 day proliferation assay, AsPC-1; format: cell-based; conditions: Homo sapiens, ASPC1, 72 h, read-out: IC50 cell growth
[35] = tested on: PSN1 (KRAS^G12R); test: 3 day proliferation assay, PSN1; format: cell-based; conditions: Homo sapiens, 72 h, read-out: IC50 cell growth

SMILES: Cc1ccc(NC(=O)c2ccnc(C(F)(F)F)c2)cc1-c1cc(OCCO)nc(N2CCOCC2)c1 [Compound A, N-(3-(2-(2-hydroxyethoxy)-6-morpholinopyridin-4-yl)-4-methylphenyl)-2-(trifluoromethyl)isonicotinamide]
- IC50 [1]: 240 nM
- IC50 [2]: 450 nM
- IC50 [3]: 250 nM
- IC50 [4]: 210 nM
- IC50 [5]: 470 nM
- IC50 [6]: 1500 nM
- IC50 [7]: 650 nM
- IC50 [8]: 680 nM
- IC50 [9]: 420 nM
- IC50 [10]: 18200 nM
- IC50 [11]: > 20000 nM
- IC50 [12]: > 20000 nM
- IC50 [13]: 420 nM
- IC50 [14]: 720 nM
- IC50 [15]: 1150 nM
- IC50 [16]: 1140 nM
- IC50 [17]: 1050 nM
- IC50 [18]: 1120 nM
- IC50 [19]: 950 nM
- increase in IC50 in resistant models [20]: 2-3 fold
- AUC ([21]; human, oral, 100 mg): 5680 ng·h/mL
- AUC ([21]; human, oral, 200 mg): 10000 ng·h/mL
- half-life ([21]; human, oral, in patients): 23 to 24 h
- Cmax ([21]; human, single 100 mg dose): 447 ng/mL
- Cmax ([21]; human, single 200 mg dose): 889 ng/mL
- accumulation ratio ([21]; once daily dosing of 100 mg): 1.8
- IC50 [22]: 200 to 1200 nM
- anti-tumor effect ([23]; mice, 30 mg/kg QD): Tumor stasis
- anti-tumor effect ([23]; nude mice, 100, 200, and 300 mg/kg once daily (QD)): regressions
- anti-tumor effect ([24]; nude rats, 75 and 150 mg/kg QD): regressions
- anti-tumor effect ([24]; rats, 35 mg/kg QD): Tumor stasis
- anti-tumor effect [25]: Regressions
- anti-tumor effect [26]: Regressions
- single agent anti-tumor activity ([27]; H358, Calu6, H727 models, oral daily): showed single agent activity
- tolerability (body weight loss) ([27]; in all cases (KRAS-mutant xenograft models)): well tolerated as judged by lack of significant body weight loss
- T/C ([28]; Compound A 30 mg/kg qd, oral, 17 days post dosing): 26%
- durability of tumor response [28]: progressed under treatment
- predicted half-life [29]: ~9 h
- in vivo levels of DUSP6 [30]: drop
- partial response according to RECIST [31]: −35%

SMILES: CNC[C@@H](NC(=O)c1ccc(-c2nc([C@H]3CC[C@H](O)[C@@H](F)C3)cnc2N)cc1F)c1cc(F)cc(Br)c1 [Compound B, 4-(3-amino-6-((1S,3S,4S)-3-fluoro-4-hydroxycyclohexyl)pyrazin-2-yl)-N-((S)-1-(3-bromo-5-fluorophenyl)-2-(methylamino)ethyl)-2-fluorobenzamide]
- IC50 [32]: < 1000 nM
- IC50 [33]: < 1000 nM
- IC50 [34]: < 1000 nM
- IC50 [35]: < 1000 nM
- regressions ([28]; Compound B 50 mg/kg qd, oral, 17 days post dosing): 22%
- T/C ([28]; Compound B 75 mg/kg q2d, oral, 17 days post dosing): 4%
- durability of tumor response [28]: progressed under treatment

- IC50 [14]: > 10000 nM
- IC50 [15]: 5350 nM
- IC50 [16]: 2330 nM
- IC50 [17]: 1810 nM
- IC50 [18]: 4840 nM
- IC50 [19]: 5500 nM
SMILES: Cn1cnc2c(F)c(Nc3ccc(Br)cc3Cl)c(C(=O)NOCCO)cc21 [Selumetinib]
- IC50 [13]: 36 nM

- IC50 [14]: 8510 nM
- IC50 [15]: 9620 nM
- IC50 [16]: 8700 nM
- IC50 [17]: 5580 nM
- IC50 [18]: 5280 nM
- IC50 [19]: 9380 nM
SMILES: CCCS(=O)(=O)Nc1ccc(F)c(C(=O)c2c[nH]c3ncc(-c4ccc(Cl)cc4)cc23)c1F [Vemurafenib]
- IC50 [13]: 66 nM
